Key:
BALB/c female mice = experiment: Contact hypersensitivity, TNBS sensitization / TNCB ear challenge (ear swelling); type: in vivo; conditions: for % SUPPRESSION: TNBS 2.45 mg
[1] = In vitro drug permeation from plastisol patches through human skin (paper example); type: in vitro ADME

Question: Which “suppression of contact sensitization (in words)” value (BALB/c female mice; 20 µg intradermally) does the source give for `O=C(O)c1cc(=O)c2c(OCC(O)COc3cccc4oc(C(=O)O)cc(=O)c34)cccc2o1` [sodium cromolyn, reference compound] here?
Answer: Its value is “failed to suppress contact sensitization”.

Question: What about the “enhancement in the contact sensitivity response” value (BALB/c female mice; 20 µg intradermally, 24 and 48 hours together) of the same molecule?
Answer: Its value is 14-17%.

Question: And the “% SUPPRESSION” value (BALB/c female mice; 20 µg intradermally, 24 Hours)?
Answer: The value was “+14.1%”.

Question: And the “% SUPPRESSION” value (BALB/c female mice; 20 µg intradermally, 48 Hours)?
Answer: The value was “+17.0%”.

Question: Which results are given for `CCN(CC)CCCC(C)Nc1ccnc2cc(Cl)ccc12` (stereo not shown) [chloroquine, Chloroquine, reference compound]?
Answer: % SUPPRESSION (BALB/c female mice; 200 µg intradermally, 24 Hours): 39.6%; % SUPPRESSION (BALB/c female mice; 200 µg intradermally, 48 Hours): 46.5%

Question: With `CCCCCCCC/C=C\CCCCCCCC(=O)O` [oleic acid] as the molecule, how does the “permeation rate of ISDN” value [1] read?
Answer: Its value is “significantly enhances”.

From patent EP0612525B1, “Transdermal treatment with mast cell degranulating agents for drug-induced hypersensitivity” (BRISTOL-MYERS SQUIBB COMPANY, priority 1993, dated 1994)
